Active and inactive are the calls of the source. No cut-off for these calls is given here.
Tests used:
HCT-116 [1] = assay: Antitumor activity against human HCT-116 cells xenografted in BALB/c nude mouse assessed as tumor growth inhibition at 25 mg/kg, ip administered once daily for 28 days; assay type: functional; settings: HCT-116, 672 h, time 28 day, read-out: TGI
HCT-116 [2] = assay: Downregulation of BRCA1 protein expression in human HCT-116 cells at 1 uM by Western blot analysis; assay type: functional, cell-based
[3] = Toxicity in BALB/c nude mouse xenografted with human HCT116 cells at 25 to 100 mg/kg, ip administered once daily for 28 days; assay type: organism-based, HCT-116; settings: in vivo, 672 h, dose 25-100 mg/kg, time 28 day
[4] = target: Poly [ADP-ribose] polymerase 1 (Homo sapiens, UniProt P09874); settings: dose 10.0 nM, time 45.0 min
Chain of Poly [ADP-ribose] polymerase 1 (P09874 whole entry): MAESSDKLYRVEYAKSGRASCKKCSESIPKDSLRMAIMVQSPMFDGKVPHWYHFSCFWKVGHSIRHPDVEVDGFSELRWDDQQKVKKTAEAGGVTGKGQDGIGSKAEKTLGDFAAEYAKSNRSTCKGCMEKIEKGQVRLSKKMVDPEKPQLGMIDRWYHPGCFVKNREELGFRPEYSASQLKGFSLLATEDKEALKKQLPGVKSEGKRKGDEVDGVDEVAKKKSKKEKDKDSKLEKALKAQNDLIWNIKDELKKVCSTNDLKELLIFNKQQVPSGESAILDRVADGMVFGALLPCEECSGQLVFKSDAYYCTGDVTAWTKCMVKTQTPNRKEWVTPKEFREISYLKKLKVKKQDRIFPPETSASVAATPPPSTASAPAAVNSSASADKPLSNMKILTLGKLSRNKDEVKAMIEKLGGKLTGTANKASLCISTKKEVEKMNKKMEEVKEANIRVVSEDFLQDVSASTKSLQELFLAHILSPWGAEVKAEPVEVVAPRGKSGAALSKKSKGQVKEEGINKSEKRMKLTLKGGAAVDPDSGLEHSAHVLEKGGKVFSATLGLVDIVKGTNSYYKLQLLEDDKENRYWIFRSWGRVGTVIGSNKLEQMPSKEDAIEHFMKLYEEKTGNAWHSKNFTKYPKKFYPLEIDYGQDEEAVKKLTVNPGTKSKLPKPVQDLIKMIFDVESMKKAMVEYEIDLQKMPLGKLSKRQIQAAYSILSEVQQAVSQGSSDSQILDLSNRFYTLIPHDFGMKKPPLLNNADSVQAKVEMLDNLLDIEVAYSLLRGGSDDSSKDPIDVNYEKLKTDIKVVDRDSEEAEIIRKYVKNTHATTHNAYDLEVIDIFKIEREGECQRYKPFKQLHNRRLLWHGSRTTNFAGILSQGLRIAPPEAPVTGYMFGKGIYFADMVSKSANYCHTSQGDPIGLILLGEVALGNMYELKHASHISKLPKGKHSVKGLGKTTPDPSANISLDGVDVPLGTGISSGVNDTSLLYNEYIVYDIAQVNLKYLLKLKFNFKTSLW

HCT-116 [5] = assay: Inhibition of Wnt/beta-Catenin signaling in human HCT-116 cells assessed as decrease in active beta-catenin levels at 10 uM by Western blot analysis; assay type: cell-based
[6] = Toxicity in […] assessed as morphological changes in jejunum at 500 mg/kg, ip by H&E staining based histopathological analysis; assay type: organism-based; settings: in vivo
HCT-116 [7] = assay: Induction of apoptosis in human HCT-116 cells assessed as early apoptotic cells at 5 uM incubated for 3 days by annexinV-FITC/propidium iodide staining based flow cytometry (reference value: 7.67 %); assay type: functional; settings: time 3 day
[8] = Toxicity in […] assessed as effect on body weight at 500 mg/kg, ip administered as single dose and measured on day 2 (reference value: 23.25 +/- 2.22 g); assay type: organism-based; settings: in vivo
HCT-116 [9] = assay: Inhibition of Wnt/beta-Catenin signaling in human HCT-116 cells assessed as decrease in total beta-catenin levels at 10 uM by Western blot analysis; assay type: cell-based
[10] = target: T1, Poly [ADP-ribose] polymerase tankyrase-1 (Homo sapiens) (UniProt O95271); settings: dose 10.0 nM, time 1.0 hrs
T1 sequence (whole entry): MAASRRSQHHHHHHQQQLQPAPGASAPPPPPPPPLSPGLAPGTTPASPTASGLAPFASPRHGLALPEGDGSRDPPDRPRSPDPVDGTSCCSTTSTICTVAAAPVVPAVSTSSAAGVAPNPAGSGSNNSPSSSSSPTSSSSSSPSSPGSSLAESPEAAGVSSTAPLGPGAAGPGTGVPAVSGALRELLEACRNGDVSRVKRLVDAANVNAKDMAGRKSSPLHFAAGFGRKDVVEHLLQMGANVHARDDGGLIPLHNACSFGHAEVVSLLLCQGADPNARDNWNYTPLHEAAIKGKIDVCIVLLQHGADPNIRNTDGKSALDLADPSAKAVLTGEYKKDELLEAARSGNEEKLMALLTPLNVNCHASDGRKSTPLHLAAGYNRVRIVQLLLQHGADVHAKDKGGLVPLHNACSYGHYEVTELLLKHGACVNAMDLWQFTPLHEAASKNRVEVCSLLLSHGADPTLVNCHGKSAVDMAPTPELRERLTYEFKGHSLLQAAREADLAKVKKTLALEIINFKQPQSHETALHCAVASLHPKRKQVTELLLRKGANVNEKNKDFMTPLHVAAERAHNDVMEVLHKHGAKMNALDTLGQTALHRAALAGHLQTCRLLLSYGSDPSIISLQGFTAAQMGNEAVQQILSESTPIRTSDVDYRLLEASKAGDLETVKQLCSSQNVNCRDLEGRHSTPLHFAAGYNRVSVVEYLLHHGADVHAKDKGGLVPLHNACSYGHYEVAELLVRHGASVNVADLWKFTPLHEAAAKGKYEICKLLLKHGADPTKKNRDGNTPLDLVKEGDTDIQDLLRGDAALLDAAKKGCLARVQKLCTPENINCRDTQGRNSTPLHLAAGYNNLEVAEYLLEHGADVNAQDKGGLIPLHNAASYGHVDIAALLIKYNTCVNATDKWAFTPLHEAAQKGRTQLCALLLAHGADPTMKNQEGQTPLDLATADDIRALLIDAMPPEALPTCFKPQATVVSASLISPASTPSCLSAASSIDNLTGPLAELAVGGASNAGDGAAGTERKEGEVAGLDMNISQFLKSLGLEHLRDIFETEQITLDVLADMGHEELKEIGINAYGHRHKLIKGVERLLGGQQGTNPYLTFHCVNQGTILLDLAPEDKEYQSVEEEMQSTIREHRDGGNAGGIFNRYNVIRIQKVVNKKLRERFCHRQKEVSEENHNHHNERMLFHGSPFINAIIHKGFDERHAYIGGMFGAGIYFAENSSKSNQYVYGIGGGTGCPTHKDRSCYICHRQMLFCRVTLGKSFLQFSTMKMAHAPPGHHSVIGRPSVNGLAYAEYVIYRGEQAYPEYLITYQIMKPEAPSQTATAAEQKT

[11] = target: T2, Protein mono-ADP-ribosyltransferase PARP12 (Homo sapiens, UniProt Q9H0J9); assay: Inhibition of PARP-12 (unknown origin)
T2 sequence (Q9H0J9 whole entry): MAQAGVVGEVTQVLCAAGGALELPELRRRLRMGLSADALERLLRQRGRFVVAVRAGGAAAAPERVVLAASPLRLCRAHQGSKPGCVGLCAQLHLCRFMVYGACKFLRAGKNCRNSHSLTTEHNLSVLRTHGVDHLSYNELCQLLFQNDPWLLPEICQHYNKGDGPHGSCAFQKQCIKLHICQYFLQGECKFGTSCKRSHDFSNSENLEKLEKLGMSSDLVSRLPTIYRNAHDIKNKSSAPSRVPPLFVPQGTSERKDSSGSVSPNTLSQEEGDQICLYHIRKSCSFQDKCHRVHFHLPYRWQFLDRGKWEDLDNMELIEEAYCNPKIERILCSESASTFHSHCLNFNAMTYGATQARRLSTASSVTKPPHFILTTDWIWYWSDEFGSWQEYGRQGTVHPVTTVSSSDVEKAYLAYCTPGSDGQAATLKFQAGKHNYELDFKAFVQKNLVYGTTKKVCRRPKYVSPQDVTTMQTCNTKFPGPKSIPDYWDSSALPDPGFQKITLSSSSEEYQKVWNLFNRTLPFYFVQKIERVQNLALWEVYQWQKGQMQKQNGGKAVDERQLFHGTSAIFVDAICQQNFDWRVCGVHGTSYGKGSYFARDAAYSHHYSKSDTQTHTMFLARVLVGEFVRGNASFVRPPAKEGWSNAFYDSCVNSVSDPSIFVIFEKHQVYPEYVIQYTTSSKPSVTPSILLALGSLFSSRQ

[12] = target: Poly [ADP-ribose] polymerase 2 (Homo sapiens, UniProt Q9UGN5); assay: Inhibition of PAPR-2 (unknown origin)
Chain of Poly [ADP-ribose] polymerase 2 (Q9UGN5 whole entry): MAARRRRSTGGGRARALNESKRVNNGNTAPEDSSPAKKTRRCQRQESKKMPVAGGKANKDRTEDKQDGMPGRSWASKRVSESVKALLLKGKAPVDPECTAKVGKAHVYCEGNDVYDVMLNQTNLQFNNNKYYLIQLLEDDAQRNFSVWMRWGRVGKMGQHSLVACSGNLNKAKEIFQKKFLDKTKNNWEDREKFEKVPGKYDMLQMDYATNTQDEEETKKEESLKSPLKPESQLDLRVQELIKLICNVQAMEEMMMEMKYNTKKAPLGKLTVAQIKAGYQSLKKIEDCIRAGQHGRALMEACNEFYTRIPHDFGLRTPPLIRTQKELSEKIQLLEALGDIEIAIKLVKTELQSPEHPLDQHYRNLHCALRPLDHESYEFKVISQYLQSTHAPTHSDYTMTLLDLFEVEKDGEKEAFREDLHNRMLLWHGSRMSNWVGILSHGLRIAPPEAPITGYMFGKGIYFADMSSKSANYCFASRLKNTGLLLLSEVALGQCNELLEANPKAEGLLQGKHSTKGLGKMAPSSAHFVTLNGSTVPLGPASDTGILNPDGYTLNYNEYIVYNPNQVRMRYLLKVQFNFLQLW

SMILES: COc1ccc(NC(=O)c2ccc(NC(=O)N3CCN(C(=O)c4cc(Cc5n[nH]c(=O)c6ccccc56)ccc4F)CC3)cc2)cc1
- inhibition in vivo at 25 mg/kg (HCT-116 [1]): 31.7%
- Activity (HCT-116 [2]): Active
- Activity [3]: Non-Toxic
- inhibition [4]: 97%
- inhibition (HCT-116 [5]): Active
- Activity [6]: Non-Toxic
- Activity (HCT-116 [7]): 6.61%
- Activity [8]: 20.75 g
- inhibition (HCT-116 [9]): Active
- inhibition [10]: 28%
- IC50 [11]: 371 nM
- IC50 [12]: 1.2 nM

— ChEMBL document CHEMBL5120857, “Rational design, synthesis and biological evaluation of dual PARP-1/2 and TNKS1/2 inhibitors for cancer therapy” (Eur J Med Chem, 2022)
